The structures appear in SMILES notation.

Chain of STAT3 (P40763 whole entry): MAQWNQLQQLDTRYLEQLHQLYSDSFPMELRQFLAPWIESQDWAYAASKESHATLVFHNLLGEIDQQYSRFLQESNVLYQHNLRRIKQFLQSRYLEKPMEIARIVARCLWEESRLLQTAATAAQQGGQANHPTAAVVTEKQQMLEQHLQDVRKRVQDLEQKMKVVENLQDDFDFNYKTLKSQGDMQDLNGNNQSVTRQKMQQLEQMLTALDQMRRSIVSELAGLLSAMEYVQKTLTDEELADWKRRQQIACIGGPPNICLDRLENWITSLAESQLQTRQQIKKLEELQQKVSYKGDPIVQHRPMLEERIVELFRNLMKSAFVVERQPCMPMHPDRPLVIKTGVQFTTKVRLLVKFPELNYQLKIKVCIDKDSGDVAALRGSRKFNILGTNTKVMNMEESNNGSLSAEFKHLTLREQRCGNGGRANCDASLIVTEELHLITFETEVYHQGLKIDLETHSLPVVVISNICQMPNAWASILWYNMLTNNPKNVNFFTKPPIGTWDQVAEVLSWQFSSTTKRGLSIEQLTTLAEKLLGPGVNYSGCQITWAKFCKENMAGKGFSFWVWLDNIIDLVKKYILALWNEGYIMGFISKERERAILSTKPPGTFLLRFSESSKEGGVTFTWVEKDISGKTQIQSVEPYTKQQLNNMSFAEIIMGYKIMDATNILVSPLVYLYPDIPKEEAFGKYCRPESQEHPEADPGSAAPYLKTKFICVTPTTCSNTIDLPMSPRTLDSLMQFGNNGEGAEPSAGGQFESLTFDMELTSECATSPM

One experiment addresses STAT3 (Homo sapiens, UniProt P40763). Description: Quantitation of STAT3 degradation in A549 cells by Western blot. It counts as cell-based. Also on record: expressed in transfected cells; host or cells: A549. As to conditions: 24 hours, tested up to 30 μM or 10 μM, read-out: A549 DC50. Put shortly: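 A549 cells treated 24 h at 37° C with compound at 30, 10, 3, 1, 0.3 μM or DMSO; RIPA lysates analysed by SDS-PAGE/Western blot for total STAT3, β-actin as loading control, LI-COR fluorescence read-out. DC50 derived by sigmoidal fit of dose-dependent degradation.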
A general note: In western blotting, separated proteins are transferred to a membrane and probed.
Usually DC50 stands for the midpoint of the concentration-degradation curve. Regarding `Cc1ncsc1-c1ccc(CNC(=O)[C@@H]2C[C@@H](O)CN2C(=O)[C@@H](NC(=O)CCCCc2ccc(CO[C@H](C)[C@H](CCC(N)=O)NC(=O)[C@@H]3Cc4cccc5c4N3C(=O)[C@@H](NC(=O)c3cc4cc(CP(=O)(O)O)ccc4[nH]3)CC5)cc2)C(C)(C)C)cc1` [Compound I-82, diammonium (2-[[(2S,11S)-2-[[(3S,4R)-1-carbamoyl-4-[[4-(4-[[(2S)-1-[(2S,4R)-4-hydroxy-2-([[4-(4-methyl-1,3-thiazol-5-yl)phenyl]methyl]carbamoyl)pyrrolidin-1-yl]-3,3-dimethyl-1-oxobutan-2-yl]carbamoyl]butyl)phenyl]methxy]opentan-3-yl]carbamoyl]-12-oxo-1-azatricyclo[6.4.1.0^[4,13]]trideca-4(13),5,7-trien-11-yl]carbamoyl]-1H-indo1-5-yl)methylphosphonate], the DC50 was > 30 µM.

The same experiment, now with this note: read-out: A549 DC50, 24 hours, tested up to 30 μM or 10 μM.
`C/C(=C\C(=O)N[C@H]1CCc2cccc3c2N(C1=O)[C@H](C(=O)NC(CCC(N)=O)[C@@H](C)OCc1ccc(CCCOCCCCCc2ccc4c(c2)n(C)c(=O)n4C2CCC(=O)NC2=O)cc1)C3)c1ccc(C(F)(F)P(=O)(OCOC(=O)C(C)(C)C)OCOC(=O)C(C)(C)C)cc1` (stereo partly drawn) [Compound I-36, [([4-[(1E)-1-[[(2S,11S)-2-[[(3S,4R)-1-carbamoyl-4-([4-[3-([5-[1-(2,6-dioxopiperidin-3-yl)-3-methyl-2-oxo-1,3-benzodiazol-5-yl]pentyl]oxy)propyl]phenyl]methoxy)pentan-3-yl]carbamoyl]-12-oxo-1-azatricyclo[6.4.1.0^[4,13]]trideca-4(13),5,7-trien-11-yl]carbamoyl]prop-1-en-2-yl]phenyl]difluoromethyl([(2,2-dimethylpropanoyl)oxy]methoxy)phosphoryl)oxy]methyl 2,2-dimethylpropanoate]: the 50% degradation concentration (DC50) is > 10 µM.

On to `C/C(=C\C(=O)N[C@H]1CCc2cccc3c2N(C1=O)[C@H](C(=O)N[C@@H](CCC(N)=O)[C@@H](C)OCc1ccc(CCCCCOCCCc2cccc4c2n(C)c(=O)n4C2CCC(=O)NC2=O)cc1)C3)c1ccc(C(F)(F)P(=O)(OCOC(=O)C(C)(C)C)OCOC(=O)C(C)(C)C)cc1` (stereo partly drawn) [Compound I-38, [([4-[(1E)-1-[[(2S,11S)-2-[[(3S,4R)-1-carbamoyl-4-[[4-(5-[3-[1-(2,6-dioxopiperidin-3-yl)-3-methyl-2-oxo-1,3-benzodiazol-4-yl]propoxy]pentyl)phenyl]methoxy]pentan-3-yl]carbamoyl]-12-oxo-1-azatricyclo[6.4.1.0^[4,13]]trideca-4(13),5,7-trien-11-yl]carbamoyl]prop-1-en-2-yl]phenyl]difluoromethyl([(2,2-dimethylpropanoyl)oxy]methoxy)phosphoryl)oxy]methyl 2,2-dimethylpropanoate], for which the DC50 is > 10 µM.

Turning to `C/C(=C\C(=O)N[C@H]1CCc2cccc3c2N(C1=O)[C@H](C(=O)N[C@@H](CCC(N)=O)[C@@H](C)OCc1ccc(CCCOCc2cccc4c2n(C)c(=O)n4C2CCC(=O)NC2=O)cc1)C3)c1ccc(C(F)(F)P(=O)(OCOC(=O)C(C)(C)C)OCOC(=O)C(C)(C)C)cc1` (stereo partly drawn) [Compound I-5, [([4-[(1E)-1-[[(2S,11S)-2-[[(3S,4R)-1-carbamoyl-4-[[4-(3-[[1-(2,6-dioxopiperidin-3-yl)-3-methyl-2-oxo-1,3-benzodiazol-4-yl]methoxy]propyl)phenyl]methoxy]pentan-3-yl]carbamoyl]-12-oxo-1-azatricyclo[6.4.1.0^[4,13]]trideca-4(13),5,7-trien-11-yl]carbamoyl]prop-1-en-2-yl]phenyl]difluoromethyl([(2,2-dimethylpropanoyl)oxy]methoxy)phosphoryl)oxy]methyl 2,2-dimethylpropanoate], the DC50 was > 30 µM.

In the case of `C/C(=C\C(=O)N[C@H]1CCc2cccc3c2N(C1=O)[C@H](C(=O)N[C@@H](CCC(N)=O)[C@@H](C)OCc1ccc(CCCOCCOCCOCCOCCCc2ccc4c(c2)n(C)c(=O)n4C2CCC(=O)NC2=O)cc1)C3)c1ccc(C(F)(F)P(=O)(OCOC(=O)C(C)(C)C)OCOC(=O)C(C)(C)C)cc1` (stereo partly shown) [Compound I-60], the DC50 is > 30 µM.

On to `C/C(=C\C(=O)N[C@H]1CCc2cccc3c2N(C1=O)[C@H](C(=O)NC(CCC(N)=O)[C@@H](C)OCc1ccc(CCCOCCCCCOCCCc2cccc4c2n(C)c(=O)n4C2CCC(=O)NC2=O)cc1)C3)c1ccc(C(F)(F)P(=O)(OCOC(=O)C(C)(C)C)OCOC(=O)C(C)(C)C)cc1` (stereo partly shown) [Compound I-43], for which the DC50 is > 30 µM.

On to `C/C(=C\C(=O)N[C@H]1CCc2cccc3c2N(C1=O)[C@H](C(=O)N[C@@H](CCC(N)=O)[C@@H](C)OCc1ccc(CCCCOCC(=O)N[C@H](C(=O)N2C[C@@H](O)C[C@H]2C(=O)NCc2ccc(-c4scnc4C)cc2)C(C)(C)C)cc1)C3)c1ccc(C(F)(F)P(=O)(OCOC(=O)C(C)(C)C)OCOC(=O)C(C)(C)C)cc1` [Compound I-21], for which the half-maximal degradation concentration (DC50) was > 30 µM.

With `C[C@@H](OCc1ccc(CCCCc2ccc3c(c2)n(C)c(=O)n3C2CCC(=O)NC2=O)cc1)[C@H](CCC(N)=O)NC(=O)[C@@H]1Cc2cccc3c2N1C(=O)[C@@H](NC(=O)c1cc2cc(C(=O)P(=O)(O)O)ccc2[nH]1)CC3` (stereo partly shown) [Compound I-84], the DC50 is > 30 µM.

For the compound `Cn1c(=O)n(C2CCC(=O)NC2=O)c2ccc(C#CCCCC(=O)N3CC[C@H]4CC[C@@H](C(=O)N[C@@H](CCC(N)=O)C(=O)NC(c5ccccc5)c5ccccc5)N4C(=O)[C@@H](NC(=O)c4cc5cc(C(=O)P(=O)(O)O)ccc5[nH]4)C3)cc21` (stereo partly drawn) [Compound I-105, 2-[[(5S,8S,10aR)-8-[[(1S)-3-carbamoyl-1-(diphenylmethylcarbamoyl)propyl]carbamoyl]-3-[6-[1-(2,6-dioxopiperidin-3-yl)-3-methyl-2-oxo-1,3-benzodiazol-5-yl]hex-5-ynoyl]-6-oxo-octahydropyrrolo[1,2-a][1,5]diazocin-5-yl]carbamoyl]-1H-indole-5-carbonylphosphonic acid], the 50% degradation concentration (DC50) was < 30 µM.

Regarding `C/C(=C\C(=O)N[C@H]1CCc2cccc3c2N(C1=O)[C@H](C(=O)N[C@@H](CCC(N)=O)[C@@H](C)OCc1ccc(CCCC(=O)N[C@H](C(=O)N2C[C@H](O)C[C@H]2C(=O)NCc2ccc(-c4scnc4C)cc2)C(C)(C)C)cc1)C3)c1ccc(C(F)(F)P(=O)(OCOC(=O)C(C)(C)C)OCOC(=O)C(C)(C)C)cc1` [Compound I-7], the DC50 is < 30 µM.

On to `C/C(=C\C(=O)N[C@H]1CCc2cccc3c2N(C1=O)[C@H](C(=O)N[C@@H](CCC(N)=O)[C@@H](C)OCc1ccc(CCCCC(=O)N[C@H](C(=O)N2C[C@H](O)C[C@H]2C(=O)NC2(c4ccc(-c5scnc5C)cc4)CC2)C(C)(C)C)cc1)C3)c1ccc(C(F)(F)P(=O)(O)O)cc1` [Compound I-92], for which the DC50 is > 30 µM.

Consider `Cn1c(=O)n(C2CCC(=O)NC2=O)c2ccc(C#CCCCCC(=O)N3CC[C@H]4CC[C@@H](C(=O)N[C@@H](CCC(N)=O)C(=O)NC(c5ccccc5)c5ccccc5)N4C(=O)[C@@H](NC(=O)c4cc5cc(C(=O)P(=O)(O)O)ccc5[nH]4)C3)cc21` (stereo partly drawn) [Compound I-99, 2-[[(5S,8S,10aR)-8-[[(1S)-3-carbamoyl-1-(diphenylmethylcarbamoyl)propyl]carbamoyl]-3-[7-[1-(2,6-dioxopiperidin-3-yl)-3-methyl-2-oxo-1,3-benzodiazol-5-yl]hept-6-ynoyl]-6-oxo-octahydropyrrolo[1,2-a][1,5]diazocin-5-yl]carbamoyl]-1H-indole-5-carbonylphosphonic acid], for which the DC50 is < 30 µM.

On to `C/C(=C\C(=O)N[C@H]1CCc2cccc3c2N(C1=O)[C@H](C(=O)N[C@@H](CCC(N)=O)[C@@H](C)OCc1ccc(CCCOCCCc2cccc4c2n(C)c(=O)n4C2CCC(=O)NC2=O)cc1)C3)c1ccc(C(F)(F)P(=O)(OCOC(=O)C(C)(C)C)OCOC(=O)C(C)(C)C)cc1` (stereo partly drawn) [Compound I-10, [([4-[(1E)-1-[[(2S,11S)-2-[[(3S,4R)-1-carbamoyl-4-[[4-(3-[3-[1-(2,6-dioxopiperidin-3-yl)-3-methyl-2-oxo-1,3-benzodiazol-4-yl]propoxy]propyl)phenyl]methoxy]pentan-3-yl]carbamoyl]-12-oxo-1-azatricyclo[6.4.1.0^[4,13]]trideca-4(13),5,7-trien-11-yl]carbamoyl]prop-1-en-2-yl]phenyl]difluoromethyl([(2,2-dimethylpropanoyl)oxy]methoxy)phosphoryl)oxy]methyl 2,2-dimethylpropanoate], for which the half-maximal degradation concentration (DC50) was > 30 µM.

On to `C/C(=C\C(=O)N[C@H]1CCc2cccc3c2N(C1=O)[C@H](C(=O)N[C@@H](CCC(N)=O)[C@@H](C)OCc1ccc(CCCCCC(=O)N[C@H](C(=O)N2C[C@H](O)C[C@H]2C(=O)NCc2ccc(-c4scnc4C)cc2)C(C)(C)C)cc1)C3)c1ccc(C(F)(F)P(=O)(OCOC(=O)C(C)(C)C)OCOC(=O)C(C)(C)C)cc1` [Compound I-71], for which the DC50 is < 30 µM.

Take `C/C(=C\C(=O)N[C@H]1CN(C(=O)CCCCCC#Cc2cccc3c2CN(C2CCC(=O)NC2=O)C3=O)CC[C@H]2CC[C@@H](C(=O)N[C@@H](CCC(N)=O)C(=O)NC(c3ccccc3)c3ccccc3)N2C1=O)c1ccc(C(F)(F)P(=O)(O)O)cc1` (stereo partly drawn) [Compound I-115, ((4-((E)-4-(((5S,8S,10aR)-8-(((S)-5-amino-1-(benzhydrylamino)-1,5-dioxopentan-2-yl)carbamoyl)-3-(8-(2-(2,6-dioxopiperidin-3-yl)-1-oxoisoindolin-4-yl)oct-7-ynoyl)-6-oxodecahydropyrrolo[1,2-a][1,5]diazocin-5-yl)amino)-4-oxobut-2-en-2-yl)phenyl)difluoromethyl)phosphonic acid]: the half-maximal degradation concentration (DC50) was < 30 µM.

Turning to `Cn1c(=O)n(C2CCC(=O)NC2=O)c2ccc(CCCCCC(=O)N3CC[C@H]4CC[C@@H](C(=O)N[C@@H](CCC(N)=O)C(=O)NC(c5ccccc5)c5ccccc5)N4C(=O)[C@@H](NC(=O)c4cc5cc(C(=O)P(=O)(O)O)ccc5[nH]4)C3)cc21` (stereo partly drawn) [Compound I-107, 2-[[(5S,8S,10aR)-8-[[(1S)-3-carbamoyl-1-(diphenylmethylcarbamoyl)propyl]carbamoyl]-3-[6-[1-(2,6-dioxopiperidin-3-yl)-3-methyl-2-oxo-1,3-benzodiazol-5-yl]hexanoyl]-6-oxo-octahydropyrrolo[1,2-a][1,5]diazocin-5-yl]carbamoyl]-1H-indole-5-carbonylphosphonic acid], the DC50 is < 30 µM.
